From ChEMBL document CHEMBL1201862, “PubChem BioAssay data set” (2004)
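Method: 48-hour compound exposure of cells in 96-well plates, five concentrations, linear interpolation of endpoints. The concentration for 50% growth inhibition is given as GI50.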 Active and inactive are the calls of the source. No stated cut-off is given here; in the data, active = GI50 up to about 1.1 µM and inactive = higher.

Tests used:
Experiment in all cases: inhibition of tumour cell growth, NCI panel, 48 h
[1] = tested on: KM12
[2] = tested on: HCT-15
[3] = tested on: PC-3
[4] = tested on: HOP-62
[5] = tested on: SF-295
[6] = tested on: MDA-N
[7] = tested on: SNB-75
[8] = tested on: RXF 393
[9] = tested on: MDA-MB-231
[10] = tested on: SF-268
[11] = tested on: HT-29
[12] = tested on: ACHN
[13] = tested on: HOP-92
[14] = tested on: Malme-3M
[15] = tested on: T47D
[16] = tested on: BT-549
[17] = tested on: COLO 205
[18] = tested on: HCC 2998
[19] = tested on: OVCAR-4
[20] = tested on: SW-620
[21] = tested on: NCI-H460
[22] = tested on: CAKI-1
[23] = tested on: MCF7
[24] = tested on: MDA-MB-435
[25] = tested on: SK-MEL-5
[26] = tested on: A549
[27] = tested on: OVCAR-8
[28] = tested on: Hs-578T
[29] = tested on: OVCAR-5
[30] = tested on: NCI-H23
[31] = tested on: 786-0
[32] = tested on: HL-60
[33] = tested on: A498
[34] = tested on: HCT-116
[35] = tested on: K562
[36] = tested on: TK-10
[37] = tested on: U-251
[38] = tested on: UO-31
[39] = tested on: NCI-H522
[40] = tested on: NCI/ADR-RES
[41] = tested on: EKVX
[42] = tested on: DU-145
[43] = tested on: LOX IMVI
[44] = tested on: SK-MEL-28
[45] = tested on: SN12C
[46] = tested on: UACC-62
[47] = tested on: SNB-19
[48] = tested on: OVCAR-3
[49] = tested on: SK-MEL-2
[50] = tested on: UACC-257
[51] = tested on: M14
[52] = tested on: SK-OV-3
[53] = tested on: MOLT-4
[54] = tested on: SF-539
[55] = tested on: IGROV-1

Compound: S=c1scc(-c2ccc(Cl)cc2)n1OC1CCCC1
- GI50 [1]: 18.5 µM (inactive)
- GI50 [2]: 21.8 µM
- GI50 [3]: 29.9 µM (inactive)
- GI50 [4]: 36.7 µM (inactive)
- GI50 [5]: 30.5 µM (inactive)
- GI50 [6]: 21.6 µM (inactive)
- GI50 [7]: 36.5 µM (inactive)
- GI50 [8]: 17.1 µM (inactive)
- GI50 [9]: 39.5 µM (inactive)
- GI50 [10]: 72.9 µM (inactive)
- GI50 [11]: 20.9 µM (inactive)
- GI50 [12]: 25.5 µM (inactive)
- GI50 [13]: 21.3 µM (inactive)
- GI50 [14]: 56.2 µM (inactive)
- GI50 [15]: 12.9 µM (inactive)
- GI50 [16]: 30.2 µM (inactive)
- GI50 [17]: 12 µM (inactive)
- GI50 [18]: 23.9 µM (inactive)
- GI50 [19]: 16.7 µM (inactive)
- GI50 [20]: 32.7 µM (inactive)
- GI50 [21]: 25.2 µM (inactive)
- GI50 [22]: 47.2 µM (inactive)
- GI50 [23]: 27 µM (inactive)
- GI50 [24]: 15.7 µM (inactive)
- GI50 [25]: 11.4 µM (inactive)
- GI50 [26]: 26.2 µM (inactive)
- GI50 [27]: 33.8 µM (inactive)
- GI50 [28]: 82.6 µM (inactive)
- GI50 [29]: 52.2 µM (inactive)
- GI50 [30]: 16.9 µM (inactive)
- GI50 [31]: 37 µM (inactive)
- GI50 [32]: 22 µM (inactive)
- GI50 [33]: 26.1 µM (inactive)
- GI50 [34]: 22.2 µM (inactive)
- GI50 [35]: 16.1 µM (inactive)
- GI50 [36]: 72.8 µM (inactive)
- GI50 [37]: 15.6 µM (inactive)
- GI50 [38]: 40.6 µM (inactive)
- GI50 [39]: 16.4 µM (inactive)
- GI50 [40]: 23.8 µM (inactive)
- GI50 [41]: 28.1 µM (inactive)
- GI50 [42]: 29.4 µM (inactive)
- GI50 [43]: 23.6 µM (inactive)
- GI50 [44]: 72.4 µM (inactive)
- GI50 [45]: 35.8 µM (inactive)
- GI50 [46]: 24.4 µM (inactive)
- GI50 [47]: 69 µM (inactive)
- GI50 [48]: 16.7 µM (inactive)
- GI50 [49]: 18.3 µM (inactive)
- GI50 [50]: 27 µM (inactive)
- GI50 [51]: 36.9 µM (inactive)
- GI50 [52]: 36.2 µM (inactive)
- GI50 [53]: 15.9 µM (inactive)
- GI50 [54]: 10.8 µM (inactive)
- GI50 [55]: 48.8 µM (inactive)
